The values below come from patent US20230057568A1, “COMPOUNDS FOR TREATING FAMILIAL DYSAUTONOMIA” (PTC THERAPEUTICS, INC., priority 2019, published 2023).

SMILES strings stand for the structures.

The assay has as its system Elongator complex protein 1 (ELP1, also referred to as IKBKAP). As to the kind of experiment: IKBKAP-HTRF Assay. Format: cell-based, human. The conditions noted are these: FD patient-derived fibroblasts GM04589, 48 hours incubation; for EC2x for IKBKAP protein expression (concentration producing two times the amount of IKBKAP protein vs DMSO vehicle control): 7-point concentration curve; for MFI (maximum fold increase in IKBKAP protein abundance relative to the vehicle control): HTRF. The procedure:
The assay is used for the quantitative determination of Elongator complex protein 1 (ELP1, also referred to as IKBKAP) concentration in cell lysates using the HTRF® (Homogeneous Time-Resolved Fluorescence) technology. IKBKAP is detected in a sandwich HTRF assay by use of an anti-IKAP antibody labeled with a donor and an anti-IKAP antibody labeled with an acceptor.
Cells were thawed and incubated in DMEM-10% FBS for 72 hours. Cells were trypsinized, counted, and re-suspended to a concentration of 50,000 cells/mL in DMEM-10% FBS. A 199 μL, aliquot of the cell suspensions were plated at 10,000 cells per well in a 96 well microtiter plate and incubated for 3 to 5 hours. […] Test compounds were serially diluted 3.16-fold in 100% DMSO to generate a 7-point concentration curve. A 1 μL aliquot of 200× compound solution was transferred to cell-containing wells, and cells were incubated for 48 hours in a cell culture incubator (37° C., 5% CO2, 100% relative humidity). Triplicate samples were set up for each compound concentration. After 48 hours, the supernatant was removed from the cells and 50 μL of the 1× LB4 lysis buffer, containing protease inhibitors, was added to the cells and incubated with shaking at room temperature for 1 hour. A 36 μL aliquot of this lysate was subsequently transferred to the 384-well plate containing 4 μL of the antibody solution (1:50 dilution of anti IKAP d2 and anti-IKAP K(9+8) in detection buffer). The 384-well plate was then centrifuged for 1 minute to bring the solutions to the bottom of the plate and incubated overnight at 4° C. Fluorescence for each well of the plate at 665 nm and 620 nm was measured was on the EnVision plate reader (Perkin Elmer). The AF for each sample is calculated by: […]
wherein Signal is the normalized fluorescence for each sample well and Blank is the average normalized average fluorescence for the Blank control wells.
The maximum fold increase (MFI) in IKBKAP protein abundance for compounds of Formula (I) or a form thereof relative to the vehicle control are provided in Table 1. MFI was calculated by dividing the AF value for each sample well by the sample AF for the vehicle control wells.
The EC2× for IKBKAP protein expression obtained from the 7-point concentration curve generated for each test compound according to the protocol in Biological Example 1 are also provided in Table 1. The term “EC2× for IKBKAP protein expression” is defined as the concentration of test compound that is effective in producing two times the amount of IKBKAP protein in a FD patient cell compared to the amount produced from the DMSO vehicle control.
On the technique in general: Time-resolved FRET reads energy transfer from a long-lived donor to a nearby acceptor.

In the case of `Clc1nc(NCc2ccncc2)c2sccc2n1` [Cpd 1, 2-chloro-N-[(pyridin-4-yl)methyl]thieno[3,2-d]pyrimidin-4-amine], the “EC2x for IKBKAP protein expression (concentration producing two times the amount of IKBKAP protein vs DMSO vehicle control)” value is recorded as “* (EC2×>1 μM)”; the “MFI (maximum fold increase in IKBKAP protein abundance relative to the vehicle control)” value is “**** (between >3.9 and <4.9)”.

With `Clc1nc(NCc2ccco2)c2sccc2n1` [Cpd 2, 2-chloro-N-[(furan-2-yl)methyl]thieno[3,2-d]pyrimidin-4-amine], the “EC2x for IKBKAP protein expression (concentration producing two times the amount of IKBKAP protein vs DMSO vehicle control)” value was “* (EC2×>1 μM)”; the “MFI (maximum fold increase in IKBKAP protein abundance relative to the vehicle control)” value was “*** (between >2.9 and <3.9)”.

Take `C[C@H](N)Cc1cc2nc(Cl)nc(NCc3ccco3)c2s1` [Cpd 3, 6-[(2S)-2-aminopropyl]-2-chloro-N-[(furan-2-yl)methyl]thieno[3,2-d]pyrimidin-4-amine]: the “EC2x for IKBKAP protein expression (concentration producing two times the amount of IKBKAP protein vs DMSO vehicle control)” value was “**** (between >0.005 μM and ≤0.02 μM)”; the “MFI (maximum fold increase in IKBKAP protein abundance relative to the vehicle control)” value is “**** (between >3.9 and <4.9)”.

On to `CC[C@H](N)Cc1cc2nc(Cl)nc(NCc3ccco3)c2s1` [Cpd 4, 6-[(2S)-2-aminobutyl]-2-chloro-N-[(furan-2-yl)methyl]thieno[3,2-d]pyrimidin-4-amine], for which the “EC2x for IKBKAP protein expression (concentration producing two times the amount of IKBKAP protein vs DMSO vehicle control)” value is “**** (between >0.005 μM and ≤0.02 μM)”; the “MFI (maximum fold increase in IKBKAP protein abundance relative to the vehicle control)” value was “**** (between >3.9 and <4.9)”.

`CC(C)[C@H](N)Cc1cc2nc(Cl)nc(NCc3ccco3)c2s1` [Cpd 5, 6-[(2R)-2-amino-3-methylbutyl]-2-chloro-N-[(furan-2-yl)methyl]thieno[3,2-d]pyrimidin-4-amine]: the “EC2x for IKBKAP protein expression (concentration producing two times the amount of IKBKAP protein vs DMSO vehicle control)” value is “*** (between >0.02 μM and ≤0.5 μM)”; the “MFI (maximum fold increase in IKBKAP protein abundance relative to the vehicle control)” value was “*** (between >2.9 and <3.9)”.

Consider `CC[C@H](C)[C@H](N)Cc1cc2nc(Cl)nc(NCc3ccco3)c2s1` [Cpd 6, 6-[(2R,3S)-2-amino-3-methylpentyl]-2-chloro-N-[(furan-2-yl)methyl]thieno[3,2-d]pyrimidin-4-amine], for which the “EC2x for IKBKAP protein expression (concentration producing two times the amount of IKBKAP protein vs DMSO vehicle control)” value was “*** (between >0.02 μM and ≤0.5 μM)”; the “MFI (maximum fold increase in IKBKAP protein abundance relative to the vehicle control)” value was “*** (between >2.9 and <3.9)”.

With `CC(C)(C)[C@H](N)Cc1cc2nc(Cl)nc(NCc3ccco3)c2s1` [Cpd 7, 6-[(2R)-2-amino-3,3-dimethylbutyl]-2-chloro-N-[(furan-2-yl)methyl]thieno[3,2-d]pyrimidin-4-amine], the “EC2x for IKBKAP protein expression (concentration producing two times the amount of IKBKAP protein vs DMSO vehicle control)” value is “** (between >0.5 μL and ≤1 μM)”; the “MFI (maximum fold increase in IKBKAP protein abundance relative to the vehicle control)” value was “* (MFI<1.9)”.

In the case of `C[C@H](N)Cc1cc2ncnc(NCc3ccco3)c2s1` [Cpd 8, 6-[(2S)-2-aminopropyl]-N-[(furan-2-yl)methyl]thieno[3,2-d]pyrimidin-4-amine], the “EC2x for IKBKAP protein expression (concentration producing two times the amount of IKBKAP protein vs DMSO vehicle control)” value was “*** (between >0.02 μM and ≤0.5 μM)”; the “MFI (maximum fold increase in IKBKAP protein abundance relative to the vehicle control)” value was “*** (between >2.9 and <3.9)”.

As for `C[C@H](N)Cc1cc2nc(Cl)nc(NCc3ccncc3)c2s1` [Cpd 9, 6-[(2S)-2-aminopropyl]-2-chloro-N-[(pyridin-4-yl)methyl]thieno[3,2-d]pyrimidin-4-amine], the “EC2x for IKBKAP protein expression (concentration producing two times the amount of IKBKAP protein vs DMSO vehicle control)” value was “**** (between >0.005 μM and ≤0.02 μM)”; the “MFI (maximum fold increase in IKBKAP protein abundance relative to the vehicle control)” value was “***** (>4.9)”.

On to `CC[C@H](N)Cc1cc2nc(Cl)nc(NCc3cccs3)c2s1` [Cpd 10, 6-[(2S)-2-aminobutyl]-2-chloro-N-[(thiophen-2-yl)methyl]thieno[3,2-d]pyrimidin-4-amine], for which the “EC2x for IKBKAP protein expression (concentration producing two times the amount of IKBKAP protein vs DMSO vehicle control)” value is “*** (between >0.02 μM and ≤0.5 μM)”; the “MFI (maximum fold increase in IKBKAP protein abundance relative to the vehicle control)” value is “**** (between >3.9 and <4.9)”.

Take `C[C@H](N)Cc1cc2ncnc(NCc3ccncc3)c2s1` [Cpd 11, 6-[(2S)-2-aminopropyl]-N-[(pyridin-4-yl)methyl]thieno[3,2-d]pyrimidin-4-amine]: the “EC2x for IKBKAP protein expression (concentration producing two times the amount of IKBKAP protein vs DMSO vehicle control)” value was “*** (between >0.02 μM and ≤0.5 μM)”; the “MFI (maximum fold increase in IKBKAP protein abundance relative to the vehicle control)” value was “**** (between >3.9 and <4.9)”.

Turning to `Cc1c(C[C@H](C)N)sc2c(NCc3ccco3)nc(Cl)nc12` [Cpd 12, 6-[(2S)-2-aminopropyl]-2-chloro-N-[(furan-2-yl)methyl]-7-methylthieno[3,2-d]pyrimidin-4-amine], the “EC2x for IKBKAP protein expression (concentration producing two times the amount of IKBKAP protein vs DMSO vehicle control)” value is listed as “***** (<0.005 μM)” and the “MFI (maximum fold increase in IKBKAP protein abundance relative to the vehicle control)” value was “***** (>4.9)”.

For the molecule `CC[C@H](N)Cc1sc2c(NCc3ccco3)nc(Cl)nc2c1C` [Cpd 13, 6-[(2S)-2-aminobutyl]-2-chloro-N-[(furan-2-yl)methyl]-7-methylthieno[3,2-d]pyrimidin-4-amine], the “EC2x for IKBKAP protein expression (concentration producing two times the amount of IKBKAP protein vs DMSO vehicle control)” value is given as “***** (<0.005 μM)” and the “MFI (maximum fold increase in IKBKAP protein abundance relative to the vehicle control)” value is given as “***** (>4.9)”.

With `C[C@H](N)Cc1cc2nc(Cl)nc(NCc3cccs3)c2s1` [Cpd 14, 6-[(2S)-2-aminopropyl]-2-chloro-N-[(thiophen-2-yl)methyl]thieno[3,2-d]pyrimidin-4-amine], the “EC2x for IKBKAP protein expression (concentration producing two times the amount of IKBKAP protein vs DMSO vehicle control)” value was “**** (between >0.005 μM and ≤0.02 μM)”; the “MFI (maximum fold increase in IKBKAP protein abundance relative to the vehicle control)” value is on record as “***** (>4.9)”.

Take `Cc1nc(NCc2ccco2)c2sc(C[C@H](C)N)c(C)c2n1` [Cpd 15, 6-[(2S)-2-aminopropyl]-N-[(furan-2-yl)methyl]-2,7-dimethylthieno[3,2-d]pyrimidin-4-amine]: the “EC2x for IKBKAP protein expression (concentration producing two times the amount of IKBKAP protein vs DMSO vehicle control)” value is “**** (between >0.005 μM and ≤0.02 μM)”; the “MFI (maximum fold increase in IKBKAP protein abundance relative to the vehicle control)” value is given as “***** (>4.9)”.

Regarding `CCc1nc(NCc2ccco2)c2sc(C[C@H](C)N)c(C)c2n1` [Cpd 16, 6-[(2S)-2-aminopropyl]-2-ethyl-N-[(furan-2-yl)methyl]-7-methylthieno[3,2-d]pyrimidin-4-amine], the “EC2x for IKBKAP protein expression (concentration producing two times the amount of IKBKAP protein vs DMSO vehicle control)” value is “*** (between >0.02 μM and ≤0.5 μM)”; the “MFI (maximum fold increase in IKBKAP protein abundance relative to the vehicle control)” value is “*** (between >2.9 and <3.9)”.

On to `Cc1c(C[C@H](C)N)sc2c(NCc3ccco3)nc(C3CC3)nc12` [Cpd 17, 6-[(2S)-2-aminopropyl]-2-cyclopropyl-N-[(furan-2-yl)methyl]-7-methylthieno[3,2-d]pyrimidin-4-amine], for which the “EC2x for IKBKAP protein expression (concentration producing two times the amount of IKBKAP protein vs DMSO vehicle control)” value is on record as “* (EC2×>1 μM)” and the “MFI (maximum fold increase in IKBKAP protein abundance relative to the vehicle control)” value is “* (MFI<1.9)”.

In the case of `Cc1csc2c(NCc3ccco3)nc(Cl)nc12` [Cpd 18, 2-chloro-N-[(furan-2-yl)methyl]-7-methylthieno[3,2-d]pyrimidin-4-amine], the “EC2x for IKBKAP protein expression (concentration producing two times the amount of IKBKAP protein vs DMSO vehicle control)” value was “*** (between >0.02 μM and ≤0.5 μM)”; the “MFI (maximum fold increase in IKBKAP protein abundance relative to the vehicle control)” value is “***** (>4.9)”.
